In patent publication US10669268B2, “Bicyclic derivatives” (Hoffmann-La Roche Inc., priority 2012, dated 2020):

Target: ATX (human His-tagged) (Homo sapiens (Human), UniProt Q13822)
Assay: Human ATX enzyme inhibition assay (fluorescence quenching, MR121 substrate)
Type: biochemical
Conditions: 30 nM ATX, 1 μM MR121 substrate, 30° C., pH 8.0
Method in brief: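 Fluorescence-quenching assay using MR121 substrate at 1 μM final, incubated 15 min at 30 °C. Buffer was 50 mM Tris-HCl pH 8.0 with 140 mM NaCl, 5 mM KCl, 1 mM CaCl2, 1 mM MgCl2 and 0.01% Triton X-100.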

SMILES | IC50 [nM]
N#Cc1ccc(COC(=O)N2C[C@@H]3CN(C(=O)c4ccc5[nH]nnc5c4)C[C@H]3C2)c(OC2CCC2)c1 [Example 4.64, (3aS,6aS)-5-(1H-benzotriazole-5-carbonyl)-hexahydro-pyrrolo[3,4-c]pyrrole-2-carboxylic acid 4-cyano-2-cyclobutoxy-benzyl ester] | 19
O=C(OCCC12CC3CC(CC(C3)C1)C2)N1C[C@@H]2CN(C(=O)c3ccc4[nH]nnc4c3)C[C@@H]2C1 [Example 4.17, (3aS,6aR)-5-(1H-benzotriazole-5-carbonyl)-hexahydro-pyrrolo[3,4-c]pyrrole-2-carboxylic acid 2-adamantan-1-yl-ethyl ester] | 799
COc1cc(C(=O)N2C[C@@H]3CN(C(=O)c4ccc5[nH]nnc5c4)C[C@H]3C2)cc2ccccc12 [Example 19.07, (1H-benzotriazol-5-yl)-[(3aS,6aS)-5-(4-methoxy-naphthalene-2-carbonyl)-hexahydro-pyrrolo[3,4-c]pyrrol-2-yl]-methanone] | 24
N#Cc1ccc(OCC(=O)N2C[C@@H]3CN(C(=O)c4ccc5[nH]nnc5c4)C[C@H]3C2)cc1 [Example 15.94] | 1020
O=C(CCc1ccc(-c2ccccc2)nc1)N1C[C@@H]2CN(C(=O)c3ccc4[nH]nnc4c3)C[C@H]2C1 [Example 15.85] | 29
O=C(/C=C/c1ccc(C(F)(F)F)cn1)N1C[C@@H]2CN(C(=O)c3ccc4[nH]nnc4c3)C[C@H]2C1 [Example 15.78, (E)-1-[(3aR,6aR)-5-(1H-benzotriazole-5-carbonyl)-hexahydro-pyrrolo[3,4-c]pyrrol-2-yl]-3-(5-trifluoromethyl-pyridin-2-yl)-prop-2-en-1-one] | 9
O=C(c1ccc2[nH]nnc2c1)N1C[C@H]2CN(C(=O)N3CCN(c4ccc(Cl)cc4)CC3)C[C@@H]2C1 [Example 20.01, (1H-benzotriazol-5-yl)-{(3aS,6aS)-5-[4-(4-chloro-phenyl)-piperazine-1-carbonyl]-hexahydro-pyrrolo[3,4-c]pyrrol-2-yl}-methanone] | 305
O=C(OCc1ccc(F)c(OC(F)(F)F)c1)N1C[C@@H]2CN(C(=O)c3ccc4[nH]nnc4c3)C[C@@H]2C1 [Example 4.28, (3aS,6aR)-5-(1H-benzotriazole-5-carbonyl)-hexahydro-pyrrolo[3,4-c]pyrrole-2-carboxylic acid 4-fluoro-3-trifluoromethoxy-benzyl ester] | 123
Cc1cc(OC(F)(F)F)ccc1CCC(=O)N1CC[C@@H]2CN(C(=O)c3ccc4[nH]nnc4c3)C[C@@H]2CC1 [Example 17.06, 1-((3aR,8aS)-2-(1H-benzo[d][1,2,3]triazole-5-carbonyl)octahydropyrrolo[3,4-d]azepin-6(7H)-yl)-3-(2-methyl-4-(trifluoromethoxy)phenyl)-propan-1-one] | 10
O=C(CCc1ccc(OC(F)(F)F)cc1)N1C[C@H]2CN(C(=O)c3ccc4[nH]nnc4c3)C[C@@H]2C1 [Example 19.12, 1-[(3aS,6aS)-5-(1H-benzotriazole-5-carbonyl)-hexahydro-pyrrolo[3,4-c]pyrrol-2-yl]-3-(4-trifluoromethoxy-phenyl)-propan-1-one] | 10
O=C(OCc1cc(F)cc(OC(F)(F)F)c1)N1C[C@@H]2CN(C(=O)c3ccc4[nH]nnc4c3)C[C@@H]2C1 [Example 4.23, (3aS,6aR)-5-(1H-benzotriazole-5-carbonyl)-hexahydro-pyrrolo[3,4-c]pyrrole-2-carboxylic acid 3-fluoro-5-trifluoromethoxy-benzyl ester] | 17
O=C(/C=C/c1ccncc1)N1CC[C@@H]2CN(C(=O)c3ccc4[nH]nnc4c3)C[C@@H]2CC1 [Example 15.28] | 4420
CS(=O)(=O)c1ccc(/C=C/C(=O)N2CC[C@@H]3CN(C(=O)c4ccc5[nH]nnc5c4)C[C@@H]3CC2)cc1 [Example 15.68] | 171
COc1ccc(/C=C/C(=O)N2CC[C@@H]3CN(C(=O)c4ccc5[nH]nnc5c4)C[C@@H]3CC2)cc1 [Example 15.09] | 42
O=C(OCc1ccc(OC(F)(F)F)cc1)N1C[C@@H]2CN(C(=O)c3ccc4[nH]c(=O)oc4c3)C[C@H]2C1 [Example 2.04, (3aS,6aS)-5-(2-oxo-2,3-dihydro-benzooxazole-6-carbonyl)-hexahydro-pyrrolo[3,4-c]pyrrole-2-carboxylic acid 4-trifluoromethoxy-benzyl ester] | 8
O=C(COc1ccccc1OC(F)(F)F)N1CC[C@@H]2CN(C(=O)c3ccc4[nH]nnc4c3)C[C@@H]2CC1 [Example 1.32, 1-[(3aS,8aR)-2-(1H-benzotriazole-5-carbonyl)-octahydro-pyrrolo[3,4-d]azepin-6-yl]-2-(2-trifluoromethoxy-phenoxy)-ethanone] | 40
O=C(/C=C/c1ccc(OC(F)(F)F)cc1)N1C[C@@H]2CN(C(=O)c3ccc4[nH]nnc4c3)C[C@H]2C1 [Example 15.12] | 6

SMILES | IC50 [nM]
COc1cc(CCC(=O)N2C[C@@H]3CN(C(=O)c4ccc5[nH]nnc5c4)C[C@H]3C2)cc(OC(F)(F)F)c1 [Example 17.20, 1-[(3aR,6aR)-5-(1H-benzotriazole-5-carbonyl)-1,3,3a,4,6,6a-hexahydropyrrolo[3,4-c]pyrrol-2-yl]-3-[3-methoxy-5-(trifluoromethoxy)phenyl]propan-1-one] | 2
COc1cc(/C=C/C(=O)N2C[C@@H]3CN(C(=O)c4ccc5[nH]nnc5c4)C[C@H]3C2)cc(OC)c1 [Example 15.47] | 96
CC(C)c1ccccc1OCC(=O)N1C[C@@H]2CN(C(=O)c3ccc4[nH]nnc4c3)C[C@H]2C1 [Example 15.86] | 19
CC(C)Oc1cc(C#N)ccc1COC(=O)N1C[C@@H]2CN(C(=O)c3ccc4[nH]nnc4c3)C[C@H]2C1 [Example 4.65, (3aS,6aS)-5-(1H-benzotriazole-5-carbonyl)-hexahydro-pyrrolo[3,4-c]pyrrole-2-carboxylic acid 4-cyano-2-isopropoxy-benzyl ester] | 14
O=C(/C=C/c1ccc(Cl)cc1F)N1C[C@@H]2CN(C(=O)c3ccc4[nH]nnc4c3)C[C@H]2C1 [Example 15.41] | 17
N#Cc1cc(F)cc(COC(=O)N2C[C@@H]3CN(C(=O)c4ccc5[nH]nnc5c4)C[C@@H]3C2)c1 [Example 4.29, (3aR,6aS)-3-cyano-5-fluorobenzyl 5-(1H-benzo[d][1,2,3]triazole-5-carbonyl)hexahydropyrrolo[3,4-c]pyrrole-2(1H)-carboxylate] | 643
Cc1cc(COC(=O)N2C[C@@H]3CN(C(=O)[C@@H]4CCc5[nH]nnc5C4)C[C@H]3C2)c(C(C)C)cc1C#N [Example 4.47, (3aS,6aS)-5-((R)-4,5,6,7-tetrahydro-1H-benzotriazole-5-carbonyl)-hexahydro-pyrrolo[3,4-c]pyrrole-2-carboxylic acid 4-cyano-2-isopropyl-5-methyl-benzyl ester] | 4
O=C(OCc1ccc(OC(F)(F)F)cc1)N1C[C@@H]2CN(C(=O)N3CCc4[nH]nnc4C3)C[C@H]2C1 [Example 4.54, (3aS,6aS)-5-(1,4,6,7-tetrahydro-[1,2,3]triazolo[4,5-c]pyridine-5-carbonyl)-hexahydro-pyrrolo[3,4-c]pyrrole-2-carboxylic acid 4-trifluoromethoxy-benzyl ester] | 14
O=C(/C=C/c1ccc(OC(F)(F)F)cc1)N1CC[C@@H]2CN(C(=O)N3CCc4[nH]c(=O)ccc4C3)C[C@@H]2CC1 [Example 8.04] | 192
N#Cc1cccc(/C=C/C(=O)N2CC[C@@H]3CN(C(=O)c4ccc5[nH]nnc5c4)C[C@@H]3CC2)c1 [Example 15.38] | 50
COc1ccc(/C=C/C(=O)N2CC[C@@H]3CN(C(=O)c4ccc5[nH]nnc5c4)C[C@@H]3CC2)cc1F [Example 1.19, (E)-1-((3aR,8aS)-2-(1H-benzo[d][1,2,3]triazole-5-carbonyl)octahydropyrrolo[3,4-d]azepin-6(7H)-yl)-3-(3-fluoro-4-methoxyphenyl)prop-2-en-1-one] | 12
CN(Cc1cnn[nH]1)C(=O)N1C[C@H]2CCN(C(=O)CCc3ccc(OC(F)(F)F)cc3)CC[C@H]2C1 [Example 17.01, (3aR,8aS)-N-((1H-1,2,3-triazol-5-yl)methyl)-N-methyl-6-(3-(4-(trifluoromethoxy)phenyl)-propanoyl)octahydropyrrolo[3,4-d]azepine-2(1H)-carboxamide] | 85
O=C(c1cc2ccccc2c(OCC(F)(F)F)n1)N1C[C@@H]2CN(C(=O)[C@@H]3CCc4[nH]nnc4C3)C[C@H]2C1 [Example 19.28, [(3aS,6aS)-5-[(5R)-4,5,6,7-tetrahydro-1H-benzotriazole-5-carbonyl]-1,3,3a,4,6,6a-hexahydropyrrolo[3,4-c]pyrrol-2-yl]-[1-(2,2,2-trifluoroethoxy)isoquinolin-3-yl]methanone] | 2
O=C(/C=C/c1cc(Cl)cc(OC(F)(F)F)c1)N1C[C@@H]2CN(C(=O)c3ccc4[nH]nnc4c3)C[C@H]2C1 [Example 15.48] | 6
O=C(c1ccc(-c2ccc(Cl)cc2)cc1)N1C[C@@H]2CN(C(=O)c3ccc4[nH]nnc4c3)C[C@H]2C1 [Example 19.02, (1H-benzotriazol-5-yl)-[(3aR,6aR)-5-(4′-chloro-biphenyl-4-carbonyl)-hexahydro-pyrrolo[3,4-c]pyrrol-2-yl]-methanone] | 7
O=C(/C=C/c1ccccc1)N1C[C@@H]2CN(C(=O)c3ccc4[nH]nnc4c3)C[C@H]2C1 [Example 15.56] | 655
O=C(OCc1ccc(C(F)(F)F)cc1F)N1C[C@@H]2CN(C(=O)c3ccc4[nH]nnc4c3)C[C@H]2C1 [Example 4.56, (3aS,6aS)-5-(1H-benzotriazole-5-carbonyl)-hexahydro-pyrrolo[3,4-c]pyrrole-2-carboxylic acid 2-fluoro-4-trifluoromethyl-benzyl ester] | 9
